Here are results for 26 compounds from patent publication US20240383901A1, “SUBSTITUTED PYRROLO[2,3-D]PYRIMIDINES, THEIR PREPARATION AND THEIR THERAPEUTIC APPLICATION” (SANOFI, priority 2021, published 2024).

Each structure is given as a SMILES string.

For one test, the target named is T1, full-length LRRK2 G2019S (Homo sapiens, UniProt Q5S007, G2019S).
T1 construct: DYKDDDDK (FLAG)
In words: LRRK2-G2019S kinase activity assay (Lanthascreen TR-FRET). It is filed as biochemical. The following applies: 1.1 mM ATP. On the procedure: (§1) The potency of compounds was evaluated in vitro using the Lanthascreen® technology (ThermoFisher Scientific).
(§2) In a typical experiment, the reaction assay buffer contains 50 mM Tris pH8.2, 1 mM EGTA, 2.5 mM MgCl2, 0.05% Triton X100, 0.15% BSA and 1 mM DTT. The detection of the assay is performed using 1 nM Terbium labeled anti-phospho-LRRKtide (ThermoFisher Scientific) diluted in a TR-FRET buffer (ThermoFisher Scientific).
(§3) The experimental procedure was performed with Greiner small volume® 384-well. […] The working solution of compounds was prepared in a separate Greiner microplate.
(§4) The kinase reaction was initiated by addition of the ATP/LRRKtide substrate mix diluted in the reaction assay buffer. The reaction mix was incubated for at least 10 minutes at room temperature (initial velocity conditions). Reaction was stopped by addition of Terbium labeled anti-phospho-LRRKtide diluted into the detection buffer supplemented with EDTA (ThermoFisher Scientific). Plates are incubated for at least 30 minutes at room temperature and read on an Envision™ multimode plate reader (PerkinElmer) with LanthaScreen™. The TR-FRET 520:495 nm emission ratio was calculated and used to determine the IC50 value from a dose response curve fit to the 4-parameter logistic equation. The activity with respect to LRRK2 kinase in this test is given by the concentration which inhibits 50% of the LRRK2 activity (or IC50) in nM.
On the technique in general: In TR-FRET formats the signal depends on donor and acceptor labels being close together.

Test [1] deals with T2, full-length LRRK2 wild type (Homo sapiens, UniProt Q5S007).
T2 construct: DYDDDDK tagged full-length LRRK2 wild type is used
Put plainly: LRRK2 WT assay (Assay A, Lanthascreen TR-FRET, 500 uM ATP). Format: biochemical. The following applies: Assay A (values without *). The procedure:
as §1, §2, §3, §4

T2 sequence (Q5S007 whole entry): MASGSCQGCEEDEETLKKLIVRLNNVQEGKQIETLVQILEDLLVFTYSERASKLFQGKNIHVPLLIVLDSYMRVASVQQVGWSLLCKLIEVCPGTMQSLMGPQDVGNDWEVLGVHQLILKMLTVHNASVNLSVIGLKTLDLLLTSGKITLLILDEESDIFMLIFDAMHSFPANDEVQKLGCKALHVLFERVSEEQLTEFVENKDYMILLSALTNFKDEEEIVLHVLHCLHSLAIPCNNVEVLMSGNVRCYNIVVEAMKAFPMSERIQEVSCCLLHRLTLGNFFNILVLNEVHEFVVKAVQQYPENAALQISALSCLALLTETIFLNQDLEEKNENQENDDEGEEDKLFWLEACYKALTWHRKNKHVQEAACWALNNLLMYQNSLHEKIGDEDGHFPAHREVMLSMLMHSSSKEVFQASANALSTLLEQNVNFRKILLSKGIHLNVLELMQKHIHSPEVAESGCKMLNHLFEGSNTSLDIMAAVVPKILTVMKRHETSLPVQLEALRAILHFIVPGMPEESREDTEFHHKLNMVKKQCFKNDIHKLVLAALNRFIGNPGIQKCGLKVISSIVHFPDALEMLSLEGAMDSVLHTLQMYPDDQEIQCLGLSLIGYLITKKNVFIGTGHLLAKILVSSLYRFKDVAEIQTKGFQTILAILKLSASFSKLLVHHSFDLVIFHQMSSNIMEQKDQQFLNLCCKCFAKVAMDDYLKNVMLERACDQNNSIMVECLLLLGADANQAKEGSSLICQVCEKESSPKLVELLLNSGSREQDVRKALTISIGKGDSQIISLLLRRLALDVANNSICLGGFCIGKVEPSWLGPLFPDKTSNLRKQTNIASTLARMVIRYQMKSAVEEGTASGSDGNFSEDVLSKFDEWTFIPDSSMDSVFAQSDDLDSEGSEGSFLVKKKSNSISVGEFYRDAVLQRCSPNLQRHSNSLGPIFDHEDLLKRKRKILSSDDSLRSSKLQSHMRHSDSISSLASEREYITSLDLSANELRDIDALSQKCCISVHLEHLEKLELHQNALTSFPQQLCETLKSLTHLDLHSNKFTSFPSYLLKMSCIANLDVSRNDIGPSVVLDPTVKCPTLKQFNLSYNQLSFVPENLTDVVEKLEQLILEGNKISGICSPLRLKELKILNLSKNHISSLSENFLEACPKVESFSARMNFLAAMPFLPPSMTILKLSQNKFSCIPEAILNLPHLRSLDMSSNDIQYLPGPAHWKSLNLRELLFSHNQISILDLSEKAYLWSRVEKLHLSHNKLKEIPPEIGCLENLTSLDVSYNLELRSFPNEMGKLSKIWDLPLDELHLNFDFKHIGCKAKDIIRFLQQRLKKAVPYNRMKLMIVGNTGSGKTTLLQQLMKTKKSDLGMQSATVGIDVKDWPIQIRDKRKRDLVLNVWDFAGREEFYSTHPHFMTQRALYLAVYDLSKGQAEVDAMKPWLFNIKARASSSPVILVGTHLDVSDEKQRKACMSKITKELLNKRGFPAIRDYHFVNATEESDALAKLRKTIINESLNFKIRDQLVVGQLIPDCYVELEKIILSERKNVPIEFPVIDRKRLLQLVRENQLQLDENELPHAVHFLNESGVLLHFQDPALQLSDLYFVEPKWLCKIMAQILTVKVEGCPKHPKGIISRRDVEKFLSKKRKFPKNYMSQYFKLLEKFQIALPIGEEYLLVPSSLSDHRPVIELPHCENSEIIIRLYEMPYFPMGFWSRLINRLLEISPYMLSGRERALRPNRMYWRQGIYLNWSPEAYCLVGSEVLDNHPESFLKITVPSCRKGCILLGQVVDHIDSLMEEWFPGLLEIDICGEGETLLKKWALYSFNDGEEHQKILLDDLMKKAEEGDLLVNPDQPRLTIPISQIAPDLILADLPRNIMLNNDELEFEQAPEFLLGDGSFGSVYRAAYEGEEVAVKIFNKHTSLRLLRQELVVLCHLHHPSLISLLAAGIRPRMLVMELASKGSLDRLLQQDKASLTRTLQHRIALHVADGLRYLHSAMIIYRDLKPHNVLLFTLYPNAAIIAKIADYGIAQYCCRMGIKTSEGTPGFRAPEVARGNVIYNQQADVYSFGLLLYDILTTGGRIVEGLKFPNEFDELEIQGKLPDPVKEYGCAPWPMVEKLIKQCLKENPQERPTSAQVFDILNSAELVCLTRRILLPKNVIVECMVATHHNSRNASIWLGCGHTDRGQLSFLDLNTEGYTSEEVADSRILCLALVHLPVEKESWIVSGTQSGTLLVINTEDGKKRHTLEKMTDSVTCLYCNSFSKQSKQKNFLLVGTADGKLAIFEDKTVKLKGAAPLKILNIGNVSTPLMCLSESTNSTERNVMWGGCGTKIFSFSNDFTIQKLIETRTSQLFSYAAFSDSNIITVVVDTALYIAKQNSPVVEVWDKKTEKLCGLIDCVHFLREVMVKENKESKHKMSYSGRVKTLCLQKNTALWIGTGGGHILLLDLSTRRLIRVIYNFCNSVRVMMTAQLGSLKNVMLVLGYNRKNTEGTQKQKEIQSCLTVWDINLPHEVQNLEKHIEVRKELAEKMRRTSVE
T1 sequence (Q5S007 whole entry G2019S): as the sequence (Q5S007 whole entry) above, with G2019S counted along it

`[2H]C([2H])([2H])n1cc(Nc2ncc3cc(C#N)n([C@H]4COC[C@@H]4C)c3n2)c(OC2COC(C)(C)C2)n1` (single isomer, unassigned) [Example 109]: the half-inhibitory concentration (IC50) was 38 nM at full-length LRRK2 G2019S and 26 nM in test [1].

On to `[2H]C([2H])([2H])n1cc(Nc2ncc3cc(C#N)n(C4COCC4C)c3n2)c(OC2CCC2(C)O)n1` (single isomer, unassigned) [Example 141], for which the results for the IC50 (against full-length LRRK2 G2019S; in test [1]) were 54 nM and 44 nM, respectively.

Turning to `CC(Oc1nn(C)cc1Nc1ncc2cc(C#N)n([C@H]3COC[C@@H]3C)c2n1)C(F)(F)F` (single isomer, unassigned) [Example 21], the half-inhibitory concentration (IC50) (at full-length LRRK2 G2019S; in test [1]) was 1 nM in each case.

`[2H]C([2H])([2H])n1cc(Nc2ncc3cc(C#N)n([C@@H](C)COC)c3n2)c(OC2C(C)(C)C(O)C2(C)C)n1` (single isomer, unassigned) [Example 132]: the figures for the IC50 (at full-length LRRK2 G2019S; in test [1]) were 32 nM and 36 nM, respectively.

For `[2H]C([2H])([2H])n1cc(Nc2ncc3cc(C#N)n([C@H]4COC[C@@H]4C)c3n2)c(OC2COC2(C)C)n1` (single isomer, unassigned) [Example 118], the half-inhibitory concentration (IC50) against full-length LRRK2 G2019S was 29 nM; in test [1] it was 14 nM.

With `[2H]C([2H])([2H])n1cc(Nc2ncc3cc(C#N)n([C@@H](C)COC)c3n2)c(OC2CCOC2)n1` (single isomer, unassigned) [Example 102], the 50% inhibitory concentration (IC50) at full-length LRRK2 G2019S was determined as 41 nM; in test [1], 39 nM.

On to `[2H]C([2H])([2H])n1cc(Nc2ncc3cc(C#N)n([C@H]4COC[C@@H]4C)c3n2)c(OC2CCOC2)n1` (single isomer, unassigned) [Example 111], for which the IC50 against full-length LRRK2 G2019S is 22 nM; in test [1], 17 nM.

In the case of `C[C@H]1COC[C@@H]1n1c(C#N)cc2cnc(Nc3cn(C(C)(C)C#N)nc3OC3COC3)nc21` [Example 27, 2-((1-(2-Cyanopropan-2-yl)-3-(oxetan-3-yloxy)-1H-pyrazol-4-yl)amino)-7-((3R,4R)-4-methyltetrahydrofuran-3-yl)-7H-pyrrolo[2,3-d]pyrimidine-6-carbonitrile], the concentration for half-maximal inhibition (IC50) (against full-length LRRK2 G2019S; in test [1]) was 1 nM each time.

With `C[C@H]1COC[C@@H]1n1c(C#N)cc2cnc(Nc3cn(C)nc3OC3CCC34COC4)nc21` (stereo partly drawn) [Example 40, 2-[[1-methyl-3-[(2-oxaspiro[3.3]heptan-7-yl)oxy]pyrazol-4-yl]amino]-7-[(3R,4R)-4-methyltetrahydrofuran-3-yl]pyrrolo[2,3-d]pyrimidine-6-carbonitrile], the concentration for half-maximal inhibition (IC50) (against full-length LRRK2 G2019S; in test [1]) was 1 nM throughout.

As for `C[C@H]1COC[C@@H]1n1c(C#N)cc2cnc(Nc3cn(C)nc3OCC(C)(C)O)nc21` [Example 32, 2-((3-(2-Hydroxy-2-methylpropoxy)-1-methyl-1H-pyrazol-4-yl)amino)-7-((3R,4R)-4-methyltetrahydrofuran-3-yl)-7H-pyrrolo[2,3-d]pyrimidine-6-carbonitrile], the IC50 (against full-length LRRK2 G2019S; in test [1]) was 7 nM in each case.

As to `COC[C@H](C)n1c(C#N)cc2cnc(Nc3cn(COC)nc3OC3CC3)nc21` [Example 92, 2-[[3-(Cyclopropoxy)-1-(methoxymethyl)pyrazol-4-yl]amino]-7-[(1S)-2-methoxy-1-methyl-ethyl]pyrrolo[2,3-d]pyrimidine-6-carbonitrile], the IC50 came to 4 nM on full-length LRRK2 G2019S and 6 nM in test [1].

Take `COCC(C)n1c(C#N)cc2cnc(Nc3cn(C4CCC(C)(O)CC4)nc3OC3CC3)nc21` [Example 107, trans-2-((3-cyclopropoxy-1-(4-hydroxy-4-methylcyclohexyl)-1H-pyrazol-4-yl)amino)-7-((S)-1-methoxypropan-2-yl)-7H-pyrrolo[2,3-d]pyrimidine-6-carbonitrile]: the results for the 50% inhibitory concentration (IC50) (on full-length LRRK2 G2019S; in test [1]) were 81 nM and 90 nM, respectively.

For `CO[C@@H]1COC[C@H]1n1c(C#N)cc2cnc(Nc3cn(C)nc3OC3COC3)nc21` (racemic) [Example 70, 7-((trans)-4-methoxytetrahydrofuran-3-yl)-2-((1-methyl-3-(oxetan-3-yloxy)-1 H-pyrazol-4-yl)amino)-7H-pyrrolo[2,3-d]pyrimidine-6-carbonitrile], the half-maximal inhibitory concentration (IC50) on full-length LRRK2 G2019S worked out at 160 nM; in test [1], 270 nM.

On to `COCCn1cc(Nc2ncc3cc(C#N)n([C@H]4COC[C@@H]4C)c3n2)c(OC2CC2)n1` [Example 113, 2-((3-Cyclopropoxy-1-(2-methoxyethyl)-1 H-pyrazol-4-yl)amino)-7-((3R,4R)-4-methyltetrahydrofuran-3-yl)-7H-pyrrolo[2,3-d]pyrimidine-6-carbonitrile], for which the IC50 (against full-length LRRK2 G2019S; in test [1]) was 27 nM each time.

Turning to `CC(C)Oc1nn(C(C)(C)C#N)cc1Nc1ncc2cc(C#N)n(C3COC3)c2n1` [Example 74, 2-((1-(2-Cyanopropan-2-yl)-3-isopropoxy-1H-pyrazol-4-yl)amino)-7-(oxetan-3-yl)-7H-pyrrolo[2,3-d]pyrimidine-6-carbonitrile], the results for the IC50 (on full-length LRRK2 G2019S; in test [1]) were 14 nM and 20 nM, respectively.

As to `COCn1cc(Nc2ncc3cc(C#N)n([C@H]4COC[C@@H]4C)c3n2)c(OC2COC2)n1` [Example 33, 2-((1-(Methoxymethyl)-3-(oxetan-3-yloxy)-1H-pyrazol-4-yl)amino)-7-((3R,4R)-4-methyltetrahydrofuran-3-yl)-7H-pyrrolo[2,3-d]pyrimidine-6-carbonitrile], the half-inhibitory concentration (IC50) against full-length LRRK2 G2019S worked out at 9 nM; in test [1] it was 14 nM.

Take `C[C@H]1COC[C@@H]1n1c(C#N)cc2cnc(Nc3cn(CS(C)(=O)=O)nc3OC3CC3)nc21` [Example 36, 2-((3-Cyclopropoxy-1-((methylsulfonyl)methyl)-1H-pyrazol-4-yl)amino)-7-((3R,4R)-4-methyltetrahydrofuran-3-yl)-7H-pyrrolo[2,3-d]pyrimidine-6-carbonitrile]: the IC50 (at full-length LRRK2 G2019S; in test [1]) was 1 nM throughout.

For the compound `[2H]C([2H])([2H])n1cc(Nc2ncc3cc(C#N)n([C@H]4COC[C@@H]4C)c3n2)c(OC2CCOC2)n1` (single isomer, unassigned) [Example 112], the IC50 on full-length LRRK2 G2019S was determined as 16 nM; in test [1], 13 nM.

With `COC[C@H](C)n1c(C#N)cc2cnc(Nc3cn(CCO)nc3OC3CCOCC3)nc21` [Example 138, (S)-2-((1-(2-hydroxyethyl)-3-((tetrahydro-2H-pyran-4-yl)oxy)-1 H-pyrazol-4-yl)amino)-7-(1-methoxypropan-2-yl)-7H-pyrrolo[2,3-d]pyrimidine-6-carbonitrile], the IC50 (against full-length LRRK2 G2019S; in test [1]) was 11 nM in each case.

Take `[2H]C([2H])([2H])n1cc(Nc2ncc3cc(C#N)n(C4CCOCC4)c3n2)c(OC2COC2(C)C)n1` (single isomer, unassigned) [Example 120, 2-((3-((2,2-dimethyloxetan-3-yl)oxy)-1-(methyl-d3)-1 H-pyrazol-4-yl)amino)-7-(tetrahydro-2H-pyran-4-yl)-7H-pyrrolo[2,3-d]pyrimidine-6-carbonitrile]: the half-maximal inhibitory concentration (IC50) at full-length LRRK2 G2019S stood at 179 nM; in test [1], 173 nM.

For `CO[C@@H]1COC[C@H]1Oc1nn(C)cc1Nc1ncc2cc(C#N)n([C@H]3COC[C@@H]3C)c2n1` (single isomer, unassigned) [Example 13], the IC50 against full-length LRRK2 G2019S was found to be 9 nM; in test [1], 13 nM.

For the compound `[2H]C([2H])([2H])n1cc(Nc2ncc3cc(C#N)n([C@H]4COC[C@@H]4C)c3n2)c(O[C@@H]2COC[C@H]2O)n1` (single isomer, unassigned) [Example 114], the values for the concentration for half-maximal inhibition (IC50) (at full-length LRRK2 G2019S; in test [1]) were 28 nM and 20 nM, respectively.

For the compound `C[C@H]1COC[C@@H]1n1c(C#N)cc2cnc(Nc3cn(S(C)(=O)=O)nc3OC3COC3)nc21` [Example 34, 2-((1-(Methylsulfonyl)-3-(oxetan-3-yloxy)-1H-pyrazol-4-yl)amino)-7-((3R,4R)-4-methyltetrahydrofuran-3-yl)-7H-pyrrolo[2,3-d]pyrimidine-6-carbonitrile], the figures for the half-inhibitory concentration (IC50) (against full-length LRRK2 G2019S; in test [1]) were 5 nM and 7 nM, respectively.

Take `CC(C(F)F)n1cc(Nc2ncc3cc(C#N)n([C@H]4COC[C@@H]4C)c3n2)c(OC2CC2)n1` (mixture of isomers) [Example 43, 2-((3-cyclopropoxy-1-(1,1-difluoropropan-2-yl)-1H-pyrazol-4-yl)amino)-7-((3R,4R)-4-methyltetrahydrofuran-3-yl)-7H-pyrrolo[2,3-d]pyrimidine-6-carbonitrile]: the IC50 on full-length LRRK2 G2019S came to 1 nM; in test [1] it was 2 nM.

With `C[C@H]1COC[C@H]1n1c(C#N)cc2cnc(Nc3cn(C)nc3OC3COC3)nc21` (single isomer, unassigned) [Example 45, 2-((1-methyl-3-(oxetan-3-yloxy)-1 H-pyrazol-4-yl)amino)-7-((cis)-4-methyltetrahydrofuran-3-yl)-7H-pyrrolo[2,3-d]pyrimidine-6-carbonitrile], the half-maximal inhibitory concentration (IC50) is 35 nM on full-length LRRK2 G2019S and 46 nM in test [1].

For the compound `C[C@@H]1OC[C@H]1Oc1nn(C)cc1Nc1ncc2cc(C#N)n([C@H]3COC[C@@H]3C)c2n1` (single isomer, unassigned) [Example 6], the IC50 at full-length LRRK2 G2019S was found to be 4 nM; in test [1], 5 nM.

The term IC50 denotes the point on the concentration scale where inhibition reaches its midpoint. Lower therefore signals higher potency.
